According to patent publication US20240010683A1, “Peptide Inhibitors of Human Mitochondrial Fission Protein 1 and Methods of Use” (The Medical College of Wisconsin, Inc., priority 2020, published 2024):
“Also recorded” adds a separate entry of the source.

How the values were obtained:
cardiac myocytes = conditions: rat model of T2DM (OLEFT), cited from earlier work
[1] = tested on: resistance arterioles from healthy humans over-expressing Fis1 in the endothelium; assay: Endothelium-dependent vasodilation in resistance arterioles over-expressing Fis1; design: species or system human; conditions: 1 μM peptide, one hour of exposure
Protocol: FIG. 19. Pep213 can reverse impaired endothelium-dependnet vasodilation in resistance arterioles. One hour of exposure to pep213 attached to a tat sequence to improve cell penetration (1 μM pep213-tat) reverses impaired endothelium-dependent vasodilation in resistance arterioles from healthy humans over-expressing Fis1 in the endothelium (overexpression of human Fis1 achieved using lentiviral vector to transfect the vessel with a plasmid for endothelial-specific over-expression of human Fis1). 1 μM of a scrambled peptide using the same amino acids as pep213 in a random order has no effect on endothelium dependent vasodilation to acetylcholine. Pep213-tat induce improves endothelium-dependent vasodilation in an eNOS-dependent manner (as determined by the loss in acetylcholine induced endothelium-dependent vasodilation with the use of eNOS inhibitor L-NAME). N=5, P<0.001 overall. *P<0.05 at the indicated doses of acetylcholine. Ach-acetylcholine.
Further the peptide of the present invention, e.g., Pep213, can reverse impaired endothelium-dependent vasodilation in resistance arterioles. […] Pep213-tat induce improves endothelium-dependent vasodilation in an eNOS-dependent manner (as determined by the loss in acetylcholine induced endothelium-dependent vasodilation with the use of eNOS inhibitor L-NAME). […]

[2] = tested on: human microvascular endothelial cells (HMVEC); assay: NO bioavailability (DAF2-DA) in endothelial cells treated with peptide; format: cell-based; conditions: 1 μM peptide, one hour, 37° C.
Protocol: FIG. 17. The bioavailability of nitric oxide (NO) increased in human microvascular endothelial cells (HMVEC) treated with novel peptide pep213. HMVEC cells were treated with 1 μM pep213-tat for one hour at 37° C. and NO was measured with diaminofluorescein-2 diacetate (DAF2-DA) staining. N=3,* P=0.04.
(§1) Cells in Culture: To measure nitric oxide (NO) bioavailability in HMEC-1 cells and arterioles, a fluorescent NO marker, 4,5-diaminofluorescein diacetate (DAF2-DA from Cayman Chemical) was used. In a dark room, cells were incubated with or without 100 μM L-NAME for 2 hours followed by 15 minutes of incubation with DAF2-DA (5 μM) at 37° C. Fluorescence intensity was measured using a SPECTRAFluor Plus plate reader (Tecan, Morrisville, NC) using excitation and emission wavelengths of 485 nm and 535 nm, respectively. […] The arterioles were then washed with PBS buffer, mounted on a slide, and imaged by fluorescence microscopy. Untreated and unstained arterioles were used as controls for fluorescence background interference. Both treated and control vessels were measured using the same gain settings and the results were analyzed using Meta Morph 7.8 software (Universal imaging, West Chester, PA).

[3] = tested on: human resistance arteries; assay: Endothelium-dependent vasodilation to acetylcholine, resistance arteries from healthy subjects exposed to high or low glucose; conditions: for impaired endothelium-dependent vasodilation to acetylcholine: high glucose 33 mM six hours, 1-10 μM peptide
From the text: (§2) Human Resistance Artery Acquisition: Human resistance arteries from adipose samples were obtained from the upper outer quadrant of the gluteal adipose pad as previously described.^2,8,13,15,16 Briefly, following sterilization and anesthesia with 1% lidocaine, a 1-1.5 cm incision is made in the upper outer quadrant of the gluteal adipose pad. An approximately 8 cm^3 volume of adipose tissue was removed by sharp dissection. After achieving hemostasis, the wounds were closed with 1-2 absorbable deep dermal sutures and the epidermal layer closed using either Dermabond or steristrips.
(§3) Transfection of human resistance arteries with siRNA constructs was performed as previously described.^8,13 Briefly, resistance arteries dissected from adipose tissue were suspended in a culture myograph chamber (204 CM, DMT, Ann Arbor). One end of the vessel was sutured onto a glass pipette within a micro-organ chamber. Prior to suturing the second end of the arteriole to a glass pipette, Fis1 siRNA, Drp1 siRNA (20 nM in optiMEM using Lipofectamine RNAiMax, Invitrogen) or control scrambled siRNA (20 nM) were gently injected, into the vessel lumen. The loose end of the vessel is then tied onto another glass pipette, and the vessel is suspended in the chamber and placed on a myograph stage bathed in physiological buffer at 37° C. and pressurized to 60 mmHg. Following 4-6 hours of incubation, the siRNA is slowly washed out of the lumen over 24 hours at a low shear rate (□<5 dyn/cm^2).
(§4) Measurement of Endothelium-Dependent Vasoactivity: Transfected resistance arteries from healthy individuals were exposed to either normal glucose conditions (NG, glucose level 5 mM), 2 hours of low glucose (LG, glucose level 2.5 mM) or 6 hours of high glucose (HG, glucose level 33 mM). All studies in vessels from patients with T2DM were performed at 5 mM glucose. Vessels were pre-constricted approximately 50% of resting diameter with endothelin-1 (Sigma Aldrich, USA). The constricted arterioles are then exposed to acetylcholine (Ach) at serially increasing doses from 10^−10 to 10^−5 M, and changes in vessel diameter were measured using digital calipers and videomicroscopy. Following the 10^−5 M dose, vessels were exposed to 200 μM papaverine to test the smooth muscle reactivity. Following a 30-minute washout period, the same arterioles were re-constricted and incubated with L-NG-nitroarginine methyl ester (L-NAME, 100 μM), a direct inhibitor of nitric oxide synthase, for 30 minutes and vasodilation subsequently was remeasured following the exposure to Ach 10^−10 to 10^−5 M.

[4] = tested on: vessels from T2DM subjects; assay: Endothelium-dependent vasodilation to acetylcholine, resistance vessels from T2DM subjects; design: species or system human; conditions: for impaired endothelium-dependent vasodilation to acetylcholine: 5 mM glucose, 1 or 10 μM peptide
From the text: as §2, §3, §4

ApoE knockout mice = conditions: cited from earlier work
HMEC-1 cells = assay: NO production and eNOS activation in HMEC-1 cells; format: cell-based, human; conditions: non-transfected HMEC-1 cells
Protocol: FIG. 14. Phosphorylation of eNOS at Ser1177 and NO production increased in HMEC-1 cells upon activation with Ca+2 ionophore A23187 (A) representative western blot of p-eNOS-Ser1177) and β-actin with and without addition of A23187.(B) Quantitative measure of p-eNOS-(Ser1177) treated with and without A23187 (P=0.03, n=6). (C) NO production as measured using DAF2-DA (5 uM) increased upon addition of A23187 (n=4, P=0.02).
FIG. 15. […] Cells exposed to L-NAME were incubated with L-NAME for 2 hours followed by a 15-minute incubation with DAF2-DA (5 uM) prior to measurement of fluorescence intensity.
as §1, with “In a dark room, cells were incubated with or without 100 μM L-NAME for 2 hours followed by 15 minutes of incubation with DAF2-DA (5 μM) at 37° C.” left out

[5] = tested on: aortic endothelium of diabetic mice; conditions: cited from earlier work
[6] = tested on: human resistance arteries; assay: NO bioavailability (DAF2-DA fluorescence) in human resistance arteries; conditions: healthy vessels, HG and LG
Protocol: as §1, with “respectively. Human Resistance Arteries: Two vessels were obtained from a subset of healthy subjects and each vessel was cut in half to allow for four experimental conditions which included transfection with Fis1 siRNA or Drp1 siRNA with and without concomitant exposure to L-NAME for 30 minutes and transfection with scrambled siRNA control with and without concomitant exposure to L-NAME at room temperature.” for “respectively.”

For `OC[C@H]1O[C@@H](c2ccc(Cl)c(Cc3ccc(O[C@H]4CCOC4)cc3)c2)[C@H](O)[C@@H](O)[C@@H]1O` [Empagliflozin], the “mitochondrial superoxide dismutase, SOD2” value (cardiac myocytes; cardiac myocytes) is listed as “up-regulated”, the Fis1 over-expression (cardiac myocytes) is listed as “reduced” and the mitochondrial fission (cardiac myocytes) is listed as “reduced”.
In the case of “YGRKKRRQRRRGSGSGSSHKHDPLPYPHFLL (Synthetic - Pep213 fused to TAT (pep213-TAT))”, the “impaired endothelium-dependent vasodilation to acetylcholine” value [1] is reported as “reverses”, the “NO bioavailability (DAF2-DA fluorescence)” value [2] is reported as “increased” and the “NO bioavailability (DAF2-DA fluorescence)” value ([2]; listed as pep213-TAT) is reported as “significant increase”. The “papaverine response (smooth muscle reactivity)” value ([3]; 200 μM papaverine, healthy and T2DM vessels) was “did not impact”, the “impaired endothelium-dependent vasodilation to acetylcholine” value ([3]; healthy vessels) was “reversed” and the “impaired endothelium-dependent vasodilation to acetylcholine” value ([3]; healthy vessels, listed as Pep213-tat) was “reversed”. The “impaired endothelium-dependent vasodilation to acetylcholine” value ([3]; healthy vessels, listed as Tat sequence-linked pep213) was “improved”, the “impaired endothelium-dependent vasodilation to acetylcholine” value ([3]; healthy vessels, listed as pep213-TAT) was “significant improvement” and the “impaired endothelium-dependent vasodilation to acetylcholine” value ([4]; T2DM vessels) was “reverses”. The “impaired endothelium-dependent vasodilation to acetylcholine” value ([4]; T2DM vessels, listed as Pep213-tat) was “reversed”, the “impaired endothelium-dependent vasodilation to acetylcholine” value ([4]; T2DM vessels, listed as Tat sequence-linked pep213) was “improved” and the “impaired endothelium-dependent vasodilation to acetylcholine” value ([4]; T2DM vessels, listed as pep213-TAT) was “significant improvement”.
In the case of `CN(C)C(=N)N=C(N)N` [Metformin], the atherosclerotic formation (ApoE knockout mice) is given as “reduces”.
For `CNc1ccc2oc(C[C@H]3O[C@@]4(CC[C@H]3C)O[C@H]([C@H](C)C(=O)c3ccc[nH]3)[C@H](C)C[C@H]4C)nc2c1C(=O)O` [A23187], the “NO production (DAF2-DA fluorescence intensity)” value (HMEC-1 cells) was “significant increase; also recorded: increased” and the “eNOS phosphorylation at Ser1177” value (HMEC-1 cells) was “significant increase; also recorded: increased”.
For `N#C[C@@H]1CCCN1C(=O)CNC12CC3CC(CC(O)(C3)C1)C2` [vildagliptin], the NO production ([5]; aortic endothelium of diabetic mice) is given as “increasing”, the “Drp1 translocation from the cytosol” value ([5]; diabetic mice) is given as “reduces” and the ROS production ([5]; diabetic mice) is given as “reduces”. The “expression of Fis1 and Drp1” value ([5]; diabetic mice) was “reduces” and the mitochondrial fission ([5]; diabetic mice) was “reduces”.
With `COC(=O)[C@@H](N)CCCNC(=N)N[N+](=O)[O-]` [L-NAME, L-NG-nitroarginine methyl ester] the “effect of L-NAME on Fis1 siRNA increase in DAF2-DA fluorescence” value [6] was “completely abolished”, the “effect of L-NAME on protective effect of Fis1 siRNA” value ([3]; healthy vessels, HG and LG) was “completely blocked” and the “effect of L-NAME on improvement seen with pep213-tat” value ([3]; healthy vessels, high glucose, L-NAME 100 μM) was “abolished the improvements; also recorded: reversed all improvements”. The “effect of L-NAME on improvement seen with pep213-TAT” value ([4]; T2DM vessels, L-NAME 100 μM) was “abolished the improvements” and the “effect of L-NAME on favorable effect of Fis1 siRNA” value ([4]; vessels from diabetic subjects) was “completely attenuated”.
